{"source": "BindingDB's records for doi:10.1021/jm701488f", "about": "(2008)", "data": [{"assay": "Antagonist activity at human CCR2 in PBMCs assessed as inhibition of chemotaxis", "units": {"IC50": "µM"}, "values": [{"smiles": "CSc1ccc(C(=O)N[C@@H]2CCCC[C@@H]2NC(=O)CNC(=O)c2cccc(C(F)(F)F)c2)cc1", "IC50": 1.2}, {"smiles": "Nc1ccc(C(F)(F)F)cc1C(=O)NCC(=O)N[C@H]1CCCC[C@H]1NC(=O)c1ccc(S(N)(=O)=O)cc1", "IC50": 0.063}, {"smiles": "O=C(CNC(=O)c1cccc(C(F)(F)F)c1)N[C@H]1CCCC[C@H]1NC(=O)c1ccc(I)cc1", "IC50": 0.16}, {"smiles": "NS(=O)(=O)c1ccc(C(=O)N[C@@H]2CCCC[C@@H]2NC(=O)CNC(=O)c2cccc(C(F)(F)F)c2)cc1", "IC50": 0.13}, {"smiles": "NS(=O)(=O)c1ccc(C(=O)N[C@@H]2CCCC[C@@H]2NC(=O)CNC(=O)c2cc(C(F)(F)F)ccc2NC(=O)C2CCCCC2)cc1", "IC50": 0.0005}]}]}
